Data on two compounds can be found in patent US8129365B2, “Water-soluble, fluorescent compounds for detection of potassium ions” (The Regents of the University of California, priority 2005, dated 2012).

The test system of data set [1] is brain cortex ECS. Put plainly: TAC-Red [K^+]o measurements in brain cortex (spreading depression). It counts as in vivo, mice. The note with it: freshly cut brain slices, 5 min transdural loading with about 50 μM. The method, then:
TAC-Red [K^+]o measurements in brain cortex. Wildtype and AQP4 null mice in a CD1 genetic background (30-35 g body weight/age 10-12 weeks) were used (described in Ma et al. Ma et al. J. Clin. Invest. 100, 957-962 (1997)). These mice are phenotypically normal at baseline and have normal brain architecture; however they manifest altered brain swelling in response to cytotoxic and vasogenic forms of edema. Mice were anesthetized with 2,2,2-tribromoethanol (125 mg/kg, intraperitoneal (ip)) and the head was immobilized in a standard mouse stereotactic frame. Body temperature was maintained at 36-37° C. using a heating pad. The skull was exposed by a midline skin incision. A 2.7 mm diameter circular area of the thin, semi-translucent skull bone located 0.5 mm lateral to the midline and 1 mm posterior to the bregma was removed using a microdrill under microscope to expose intact dura with underlying brain. […]
Fluorescence was measured using a 1.6× objective lens (working distance 24 mm, numerical aperture 0.21), and custom filter set for TAC-Red (HQ, Chroma). […] Fluorescence was imaged using a 14-bit 1024×1024 pixel cooled CCD camera (CoolSnap HQ, Photometrics). […]
Image analysis. […] Half-times (t1/2) for the increasing and decreasing phases of TAC-Red fluorescence were determined by exponential regression analysis. […]

In data set [2] the test system is cell viability or growth. Put plainly: Cell viability or growth. The class given is cell-based. The text has this:
(§1) TAC-Red fluorescence was not sensitive to divalent cations (Ca^++ or Mg^++) or various anions, or to pH in the range 6-8 (FIG. 1, panel e).

Data set [3] is described as follows: Water solubility. It counts as physicochemical.
Data set [4] can be described thus: Fluorescence titrations of TAC-Red (spectroscopic analysis). The class given is physicochemical. On the procedure: The TAC-Red compound was subjected to spectroscopic analysis. Fluorescence measurements were carried out by standard procedures using a FluoroMax-3 fluorimeter. Fluorescence titrations were carried out at 540 nm excitation and 574 nm emission wavelengths using aqueous solution containing about 7 μM at pH 7.0 (buffered with 5 mM HEPES) unless titrated with NaOH/HCl to other pH.
Spectra in FIG. 1, Panel b were obtained using balanced KCl/choline Cl to keep ionic strength constant at 300 mM. The titration in FIG. 1, panel c was done by adding indicated NaCl/KCl from concentrated stock solutions. The data in FIG. 1, panel d were obtained at constant ionic strength (300 mM) using NaCl or choline Cl to balance the KCl.

Data set [5] can be described thus: Stop-flow measurement of TAC-Red fluorescence response. The class given is physicochemical. The settings on record: K^+ increased from 0 to 5 mM. On the procedure:
The TAC-Red fluorescence response was rapid when K^+ was increased from 0 to 5 mM in a stop-flow measurement (FIG. 1, panel c, inset), with greater than 90% of the fluorescence increase occurring in under 1 ms.

Data set [6] concerns Fisher rat thyroid epithelial cell monolayers. Kind of data set: Transport across epithelial cell monolayers. It counts as in vitro ADME.
Source text: as §1

For data set [7], the system named is CHO-K1 cells. Put plainly: K^+ efflux measured by TAC-Red fluorescence, plate reader assay. It counts as cell-based. The settings on record: 10 μM preincubation. On the procedure:
(§2) TAC-Red as an indicator for measurement of K^+ channel function for high-throughput screening applications. CHO-K1 cells (ATCC CCL-61) were cultured in Ham's F12 media supplemented with 10% fetal bovine serum, 100 U/ml penicillin and 100 μg/ml streptomycin at 37° C. in a 5% CO2/95% air atmosphere and used at ˜90% confluence. For measurements using epifluorescence microscopy cells were grown until reaching confluency on 18-mm diameter round glass coverslips. For fluorescence plate reader assays cells were cultured on Costar 96-well black plates with a clear flat bottom and used when just confluent. […]
Plate reader assay: Measurements were done using a Fluostar plate reader (BMG LabTechnologies) with syringe pump for automated solution addition. […] The plate was loaded onto plate reader and after 6 s of fluorescence measurement 30 μl of TAC-Red (150 μM) in 0 K^+ buffer was added via syringe pump. TAC-Red fluorescence was excited using an HQ545/30 filter (Chroma) and emitted fluorescence was detected through a HQ585/30 filter.

The test system of data set [8] is CHO-K1 cells. Kind of data set: K^+ efflux in CHO cells measured by TAC-Red fluorescence, fluorescence microscopy. The class given is cell-based. The settings on record: 10 μM pre-incubation, epifluorescence microscopy. The method, then:
as §2
Fluorescence microscopy: For most experiments cells on coverslips were incubated in 1 ml high K^+ buffer for 2 min prior to experiments. […] The washed cells were immediately placed cell-side down on the slide and fluorescence measured continuously. TAC-Red fluorescence was excited at 545±30 nm and detected through a 610±75 nm filter (570 nm dichroic) using a long working distance 25× air objective lens.
TAC-Red was used as an indicator of extracellular K^+, such that the rate of initial K^+ efflux into a 0 K^+ buffer could be measured. […]

“Also recorded” adds a separate entry of the source.

For `COCCOc1cc(-c2c3ccc(=[N+](C)C)cc-3oc3cc(N(C)C)ccc23)ccc1N1CCOc2cc(C)ccc2N2CCOCCOCCN(CCOCCOCC2)c2ccc(C)cc2OCC1.[Cl-]` [TAC-Red, {6-Dimethylamino-9-[4-(6,7,9,10,12,13,20,21,23,24-decahydro-2,17-dimethyl-5,14-(ethanoxyethanoxyethano)-5H,14H,22H-dibenzo[h,q][1,4,10,16,7,13,19]tetraoxatriazacyclo-heneicosin-22-yl)-3-(2-methoxyethoxy)phenyl]xanthen-3-ylidene}dimethylammonium chloride], the “Depth of TAC-Red staining beneath the brain surface” value in data set [1] is given as greater than 500 μm. Besides, the “Effect on cell viability or growth” value in data set [2] is recorded as “did not affect”. The “Water solubility” value in data set [3] was “water soluble”. In addition, the “Effect of Na^+ on TAC-Red fluorescence vs. K^+” value in data set [4] (150 mM Na^+ in place of 150 mM choline^+) is “did not affect”. Further, in data set [4] (50 and 150 mM Na^+), the “Effect of Na^+ on TAC-Red fluorescence” value was “increased slightly”. Further, the “Sensitivity of fluorescence to divalent cations” value in data set [4] (Ca^++ or Mg^++) is “not sensitive”. Further, the TAC-Red fluorescence increase result in data set [4] (K^+ concentration increasing from 0-200 mM, 540 nm excitation, 574 nm emission, pH 7.0) is on record as “more than 23 fold”. Moreover, the “K^+ sensitivity of fluorescence” value is given as “highly sensitive” in data set [4] (K^+ in the range 0 to >100 mM) and “excellent K^+ sensitivity” in data set [4] (K^+ range 0-40 mM expected in the brain ECS). For the same compound, the “K^+-to-Na^+ selectivity ratio” value in data set [4] (at 50 mM) is “about 37”. In data set [4] (monovalent cations), the “Specificity in titrations with monovalent cations” value was “specificity for K^+, Rb^+ and Cs^+ over Na^+ and Li^+”. Besides, in data set [4] (pH in the range 6-8), the “Sensitivity of fluorescence to pH” value is given as “not sensitive”. The “Sensitivity of fluorescence to various anions” value in data set [4] (various anions) was “not sensitive”. Also, the “Share of fluorescence increase occurring in under 1 ms” value in data set [5] is listed as “greater than 90%”. In addition, the “Membrane permeability” value in data set [6] is “membrane impermeant; also recorded: membrane-impermeable”. Also, the “Transport across cell monolayers” value in data set [6] (in 6 hours) was less than 1%.

Consider `CC(C)[C@@H]1NC(=O)[C@H](C)OC(=O)[C@@H](C(C)C)NC(=O)[C@@H](C(C)C)OC(=O)[C@H](C(C)C)NC(=O)[C@H](C)OC(=O)[C@@H](C(C)C)NC(=O)[C@@H](C(C)C)OC(=O)[C@H](C(C)C)NC(=O)[C@H](C)OC(=O)[C@@H](C(C)C)NC(=O)[C@@H](C(C)C)OC1=O` [valinomycin], for which the “Effect on K^+ efflux” value in data set [7] and in data set [8] was “increased K^+ efflux” in each case.
